Data set [1] concerns HT-29. Kind of data set: Cytotoxicity against human HT-29 cells assessed as cell growth inhibition at 50 uM after 24 hrs by MTT assay. The format is functional, cell-based. (In general: Tetrazolium assays rely on reduction of a dye to a coloured formazan, in cell work by metabolically active cells.)
Data set [2] deals with HT-29. Kind of data set: Cytotoxicity against human HT-29 cells assessed as cell growth inhibition at 50 uM after 48 to 72 hrs by MTT assay. The format is functional, cell-based. Particulars: time 48-72 hrs.
A further data set concerns RKO. Nature of the data set: Cytotoxicity against human RKO cells assessed as cell growth inhibition at 50 uM after 24 to 72 hrs by MTT assay. The format is functional, cell-based. Particulars: time 24-72 hrs.
The target in data set [3] is T1, P2X purinoceptor 7 (Homo sapiens) (UniProt Q99572).
T1 sequence (whole entry): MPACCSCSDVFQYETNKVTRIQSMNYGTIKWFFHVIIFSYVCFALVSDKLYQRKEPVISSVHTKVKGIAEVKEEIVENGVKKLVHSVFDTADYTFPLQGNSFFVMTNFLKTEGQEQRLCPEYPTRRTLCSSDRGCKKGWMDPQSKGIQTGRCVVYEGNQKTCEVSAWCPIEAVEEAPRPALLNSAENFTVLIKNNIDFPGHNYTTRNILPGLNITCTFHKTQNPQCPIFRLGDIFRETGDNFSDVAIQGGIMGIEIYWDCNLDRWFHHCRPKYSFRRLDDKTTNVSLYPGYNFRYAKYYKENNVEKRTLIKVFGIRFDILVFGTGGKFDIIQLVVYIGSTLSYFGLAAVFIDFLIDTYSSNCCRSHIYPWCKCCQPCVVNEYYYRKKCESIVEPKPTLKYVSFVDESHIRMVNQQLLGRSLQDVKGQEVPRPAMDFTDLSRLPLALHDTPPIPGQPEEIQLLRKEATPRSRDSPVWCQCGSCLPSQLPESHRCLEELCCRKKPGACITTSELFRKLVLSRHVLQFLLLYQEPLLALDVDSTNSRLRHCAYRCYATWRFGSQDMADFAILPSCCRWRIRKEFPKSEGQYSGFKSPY
Nature of the data set: Antagonist activity at human P2X7R expressed in human RKO cells assessed as reduction in ethidium bromide uptake at 100 uM in presence of BzATP. The format is cell-based.

The target of data set [4] is T2, P2X purinoceptor 7 (Mus musculus) (UniProt Q9Z1M0).
T2 sequence (whole entry): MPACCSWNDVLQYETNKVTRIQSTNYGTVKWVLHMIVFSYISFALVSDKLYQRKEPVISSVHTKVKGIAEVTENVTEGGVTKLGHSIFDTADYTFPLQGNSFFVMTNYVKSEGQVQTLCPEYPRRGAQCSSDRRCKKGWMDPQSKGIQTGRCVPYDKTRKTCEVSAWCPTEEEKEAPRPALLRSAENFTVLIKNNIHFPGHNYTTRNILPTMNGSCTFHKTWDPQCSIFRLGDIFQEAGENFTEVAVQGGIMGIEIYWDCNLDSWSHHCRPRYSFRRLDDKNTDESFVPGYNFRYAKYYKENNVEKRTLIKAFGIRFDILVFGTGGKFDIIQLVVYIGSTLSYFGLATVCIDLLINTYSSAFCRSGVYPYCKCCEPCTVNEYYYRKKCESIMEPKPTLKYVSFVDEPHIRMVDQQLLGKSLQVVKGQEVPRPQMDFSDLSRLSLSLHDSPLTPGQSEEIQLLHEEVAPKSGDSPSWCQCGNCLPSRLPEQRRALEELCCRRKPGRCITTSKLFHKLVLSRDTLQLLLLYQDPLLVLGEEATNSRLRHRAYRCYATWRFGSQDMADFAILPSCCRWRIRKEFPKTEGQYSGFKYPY
Kind of data set: Antagonist activity at mouse P2X7R expressed in mouse CT26 cells assessed as reduction in ethidium bromide uptake by cells at 100 uM in presence of BzATP. The format is cell-based.

The target of data set [5] is T1, P2X purinoceptor 7 (Homo sapiens). Kind of data set: Antagonist activity at human P2X7R expressed in human HT-29 cells assessed as reduction in ethidium bromide uptake at 100 uM in presence of BzATP. The format is cell-based. Particulars: filed as antagonist.
Data set [6] deals with HT-29. Kind of data set: Antimigratory activity against human HT-29 cells assessed as reversal of BzATP induced cell migration at 50 uM. The format is functional, cell-based.
For the next data set, the system named is HUVEC. Kind of data set: Cytotoxicity against HUVEC cells assessed as reduction in cell growth inhibition at 50 uM measured after 24 to 72 hrs by MTT assay. The settings on record: human, time 24-72 hrs. The format is cell-based.

Active and inactive are the calls of the source. The rule behind the calls is not given here.

Consider `COc1ccc(CC(=O)NC(N/C(=N/C#N)Nc2cccc3ncccc23)C(C)(C)C)cc1OC` (stereo not drawn), for which the result (with HT-29 [1]; in the data set on RKO; in data set [3]; in data set [4]) was inactive. Besides, the outcome (in the data set on HT-29 [2]; in data set [5]) was Active.
Consider `CCOc1ccc(-n2c(=O)[nH]c3c(C(N)=O)nc(-c4cc(F)ccc4F)nc32)cc1`, for which the outcome (in the data set with HT-29 [1]; with HT-29 [2]; in the data set on HT-29 [6]; in data set [5]) was Active. For the same molecule, the result (in the data set on RKO; in data set [3]) was inactive. Also, in the data set with HUVEC, the Activity result is on record as “Toxic”.

The values are drawn from ChEMBL document CHEMBL5053513, “Discovery of bilirubin as novel P2X7R antagonist with anti-tumor activity” (Bioorg Med Chem Lett, 2021).
